Results from the kinase profiling compilation of Christmann-Franck et al. (2016).

Experiments:
Assay in all cases: radiometric filter-binding kinase assay, Kinase HotSpot
Conditions in all cases: compound 0.5 µM; ATP 10 µM
[1] = target: RPS6KA6 KD1 KD2 (human) (UniProt Q9UK32)
[2] = target: GSG2 (human) (UniProt Q8TF76)
[3] = target: TXK (human) (UniProt P42681)
[4] = target: MAP3K9 (human) (UniProt P80192)
[5] = target: STK4 (human) (UniProt Q13043)
[6] = target: BRSK2 (human) (UniProt Q8IWQ3)
[7] = target: WNK3 (human) (UniProt Q9BYP7)
[8] = target: ITK (human) (UniProt Q08881)
[9] = target: NEK2 (human) (UniProt P51955)
[10] = target: STK3 (human) (UniProt Q13188)
[11] = system: SGK1 (human), O00141 [S422D]
[12] = target: NTRK2 (human) (UniProt Q16620)
[13] = target: GSK3A (human) (UniProt P49840)
[14] = target: AURKC (human) (UniProt Q9UQB9)
[15] = target: MAPK10 (human) (UniProt P53779)
[16] = target: CSNK2A2 (human) (UniProt P19784)
[17] = target: CDK1 CCNA2 (human) (UniProt P06493+P20248)
[18] = target: EPHA1 (human) (UniProt P21709)
[19] = target: CDK7 CCNH MNAT1 (human) (UniProt P50613+P51948+P51946)
[20] = target: CSNK2A1 (human) (UniProt P68400)
[21] = target: MAP2K1 (human) (UniProt Q02750)
[22] = target: CDK2 CCNE1 (human) (UniProt P24941+P24864)
[23] = target: FLT3 (human) (UniProt P36888)
[24] = target: PRKACA (human) (UniProt P17612)
[25] = target: PHKG1 (human) (UniProt Q16816)
[26] = target: FGFR1 (human) (UniProt P11362)
[27] = target: MARK1 (human) (UniProt Q9P0L2)
[28] = target: SRPK2 (human) (UniProt P78362)
[29] = target: LIMK1 (human) (UniProt P53667)
[30] = target: BLK (human) (UniProt P51451)
[31] = target: CSNK1G3 (human) (UniProt Q9Y6M4)
[32] = target: DYRK3 (human) (UniProt O43781)
[33] = target: INSR (human) (UniProt P06213)
[34] = target: MAP2K2 (human) (UniProt P36507)
[35] = target: RPS6KA4 KD2 (human) (UniProt O75676)
[36] = target: PRKCE (human) (UniProt Q02156)
[37] = target: EPHA2 (human) (UniProt P29317)
[38] = target: PTK2B (human) (UniProt Q14289)
[39] = target: DMPK (human) (UniProt Q09013)
[40] = target: BMX (human) (UniProt P51813)
[41] = target: MAP4K5 (human) (UniProt Q9Y4K4)
[42] = target: NTRK3 (human) (UniProt Q16288)

NTRK2 (human), sequence (Q16620 whole entry, looked up): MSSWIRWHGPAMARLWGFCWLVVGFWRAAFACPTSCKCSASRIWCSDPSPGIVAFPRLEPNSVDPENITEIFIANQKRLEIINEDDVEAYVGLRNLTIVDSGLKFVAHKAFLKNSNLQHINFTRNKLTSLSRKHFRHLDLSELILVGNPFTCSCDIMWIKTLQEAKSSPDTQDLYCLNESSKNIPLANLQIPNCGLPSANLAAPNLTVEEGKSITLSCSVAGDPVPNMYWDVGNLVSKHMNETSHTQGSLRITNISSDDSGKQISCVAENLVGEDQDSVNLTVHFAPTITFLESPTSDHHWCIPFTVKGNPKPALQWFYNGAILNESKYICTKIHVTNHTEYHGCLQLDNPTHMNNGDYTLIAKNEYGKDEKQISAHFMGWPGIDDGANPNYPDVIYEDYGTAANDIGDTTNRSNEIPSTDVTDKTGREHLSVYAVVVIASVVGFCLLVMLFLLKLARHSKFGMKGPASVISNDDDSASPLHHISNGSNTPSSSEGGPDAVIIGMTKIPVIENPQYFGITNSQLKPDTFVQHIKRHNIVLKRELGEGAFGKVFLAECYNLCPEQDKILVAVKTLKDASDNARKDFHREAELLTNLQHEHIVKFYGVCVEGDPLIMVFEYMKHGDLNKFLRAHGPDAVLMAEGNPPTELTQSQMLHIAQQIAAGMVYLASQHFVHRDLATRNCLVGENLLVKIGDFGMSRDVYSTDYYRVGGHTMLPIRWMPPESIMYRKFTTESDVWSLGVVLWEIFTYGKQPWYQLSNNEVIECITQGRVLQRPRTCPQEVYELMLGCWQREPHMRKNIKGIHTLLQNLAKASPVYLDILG
BLK (human), sequence (P51451 whole entry, looked up): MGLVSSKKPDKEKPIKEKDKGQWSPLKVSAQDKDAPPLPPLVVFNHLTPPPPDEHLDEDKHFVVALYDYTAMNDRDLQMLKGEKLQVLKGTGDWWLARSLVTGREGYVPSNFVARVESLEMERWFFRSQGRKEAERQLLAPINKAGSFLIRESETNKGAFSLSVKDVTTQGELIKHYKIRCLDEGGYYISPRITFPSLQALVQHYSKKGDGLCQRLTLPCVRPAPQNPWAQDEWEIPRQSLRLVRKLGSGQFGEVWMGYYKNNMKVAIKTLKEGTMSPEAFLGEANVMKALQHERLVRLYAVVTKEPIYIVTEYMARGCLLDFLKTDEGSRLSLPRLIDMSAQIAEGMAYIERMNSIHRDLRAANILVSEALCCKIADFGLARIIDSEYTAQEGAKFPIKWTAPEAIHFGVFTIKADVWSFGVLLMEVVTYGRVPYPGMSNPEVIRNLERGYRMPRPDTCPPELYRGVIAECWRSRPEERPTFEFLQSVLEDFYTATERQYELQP
STK4 (human), sequence (Q13043 whole entry, looked up): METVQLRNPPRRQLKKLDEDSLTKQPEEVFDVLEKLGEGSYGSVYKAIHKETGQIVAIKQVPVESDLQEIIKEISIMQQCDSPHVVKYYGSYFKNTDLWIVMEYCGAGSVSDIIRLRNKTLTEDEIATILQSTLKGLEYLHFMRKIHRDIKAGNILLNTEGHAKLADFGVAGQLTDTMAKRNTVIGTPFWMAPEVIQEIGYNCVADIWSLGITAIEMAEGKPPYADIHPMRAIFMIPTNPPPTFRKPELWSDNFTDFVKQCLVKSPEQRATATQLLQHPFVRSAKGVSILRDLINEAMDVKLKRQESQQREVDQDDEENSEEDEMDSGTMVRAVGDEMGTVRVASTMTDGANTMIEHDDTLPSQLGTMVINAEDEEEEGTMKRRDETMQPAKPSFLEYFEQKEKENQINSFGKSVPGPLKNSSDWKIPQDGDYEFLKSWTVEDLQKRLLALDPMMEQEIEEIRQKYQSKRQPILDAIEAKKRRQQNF
BRSK2 (human), sequence (Q8IWQ3 whole entry, looked up): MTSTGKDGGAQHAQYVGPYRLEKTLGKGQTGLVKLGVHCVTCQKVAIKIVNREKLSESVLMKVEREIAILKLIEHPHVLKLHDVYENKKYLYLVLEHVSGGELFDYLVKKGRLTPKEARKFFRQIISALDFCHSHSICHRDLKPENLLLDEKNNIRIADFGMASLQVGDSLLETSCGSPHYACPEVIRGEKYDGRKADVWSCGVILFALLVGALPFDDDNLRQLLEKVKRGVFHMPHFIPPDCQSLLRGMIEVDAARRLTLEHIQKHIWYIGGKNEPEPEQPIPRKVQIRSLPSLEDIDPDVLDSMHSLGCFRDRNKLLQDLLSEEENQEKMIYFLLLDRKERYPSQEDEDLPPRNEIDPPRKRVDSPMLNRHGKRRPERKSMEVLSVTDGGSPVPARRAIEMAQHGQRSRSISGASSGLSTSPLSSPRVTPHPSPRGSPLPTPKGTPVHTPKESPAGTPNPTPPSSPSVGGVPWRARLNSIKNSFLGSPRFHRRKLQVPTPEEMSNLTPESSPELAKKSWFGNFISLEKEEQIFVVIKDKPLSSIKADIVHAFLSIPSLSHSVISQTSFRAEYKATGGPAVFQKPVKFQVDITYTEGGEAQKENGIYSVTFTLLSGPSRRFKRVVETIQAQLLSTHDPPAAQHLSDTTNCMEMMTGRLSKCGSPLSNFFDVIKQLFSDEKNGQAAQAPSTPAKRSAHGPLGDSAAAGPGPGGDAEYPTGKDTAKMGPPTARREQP
WNK3 (human), sequence (Q9BYP7 whole entry, looked up): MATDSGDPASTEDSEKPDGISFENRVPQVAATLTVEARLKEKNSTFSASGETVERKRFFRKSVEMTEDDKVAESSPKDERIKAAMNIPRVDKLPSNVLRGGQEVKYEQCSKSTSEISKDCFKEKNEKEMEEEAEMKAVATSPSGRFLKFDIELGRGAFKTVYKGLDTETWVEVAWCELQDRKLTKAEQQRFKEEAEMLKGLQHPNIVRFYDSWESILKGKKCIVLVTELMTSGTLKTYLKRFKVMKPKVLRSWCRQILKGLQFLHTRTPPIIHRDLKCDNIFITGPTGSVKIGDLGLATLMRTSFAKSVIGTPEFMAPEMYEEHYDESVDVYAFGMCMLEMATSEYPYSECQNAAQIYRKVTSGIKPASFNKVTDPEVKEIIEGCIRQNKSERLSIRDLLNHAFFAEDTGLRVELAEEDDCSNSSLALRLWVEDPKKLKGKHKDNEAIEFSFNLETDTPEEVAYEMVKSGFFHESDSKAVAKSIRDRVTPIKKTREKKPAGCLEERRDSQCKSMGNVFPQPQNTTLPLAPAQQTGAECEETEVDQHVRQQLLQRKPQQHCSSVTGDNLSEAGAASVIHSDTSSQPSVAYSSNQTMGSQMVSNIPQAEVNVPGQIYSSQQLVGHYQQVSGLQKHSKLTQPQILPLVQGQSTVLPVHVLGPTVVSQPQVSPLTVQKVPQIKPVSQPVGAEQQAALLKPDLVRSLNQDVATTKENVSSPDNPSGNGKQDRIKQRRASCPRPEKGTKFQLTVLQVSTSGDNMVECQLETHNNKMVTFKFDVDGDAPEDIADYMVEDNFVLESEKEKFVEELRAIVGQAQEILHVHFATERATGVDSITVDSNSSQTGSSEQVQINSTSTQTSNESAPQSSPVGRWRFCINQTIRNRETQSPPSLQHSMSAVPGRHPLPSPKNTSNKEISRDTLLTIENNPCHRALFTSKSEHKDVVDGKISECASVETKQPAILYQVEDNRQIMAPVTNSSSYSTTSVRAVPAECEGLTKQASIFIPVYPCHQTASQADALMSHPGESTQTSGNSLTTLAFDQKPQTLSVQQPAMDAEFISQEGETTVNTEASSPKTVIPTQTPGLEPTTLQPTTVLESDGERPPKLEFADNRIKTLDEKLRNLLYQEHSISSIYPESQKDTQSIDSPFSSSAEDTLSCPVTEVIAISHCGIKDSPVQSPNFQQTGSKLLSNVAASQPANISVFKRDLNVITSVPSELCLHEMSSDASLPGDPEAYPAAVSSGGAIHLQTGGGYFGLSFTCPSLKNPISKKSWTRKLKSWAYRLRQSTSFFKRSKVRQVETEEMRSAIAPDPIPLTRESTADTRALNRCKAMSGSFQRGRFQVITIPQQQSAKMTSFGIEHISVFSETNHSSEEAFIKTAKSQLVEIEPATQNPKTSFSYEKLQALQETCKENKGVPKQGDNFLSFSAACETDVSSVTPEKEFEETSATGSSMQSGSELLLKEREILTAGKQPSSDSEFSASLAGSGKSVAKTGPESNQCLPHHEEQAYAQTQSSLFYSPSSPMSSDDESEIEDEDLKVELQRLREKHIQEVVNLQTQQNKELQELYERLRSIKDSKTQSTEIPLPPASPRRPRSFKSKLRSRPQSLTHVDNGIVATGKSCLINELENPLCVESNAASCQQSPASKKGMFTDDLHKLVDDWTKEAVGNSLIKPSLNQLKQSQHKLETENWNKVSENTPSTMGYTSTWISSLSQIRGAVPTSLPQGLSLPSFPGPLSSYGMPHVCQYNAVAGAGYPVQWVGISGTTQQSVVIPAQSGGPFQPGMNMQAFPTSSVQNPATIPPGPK
STK3 (human), sequence (Q13188 whole entry, looked up): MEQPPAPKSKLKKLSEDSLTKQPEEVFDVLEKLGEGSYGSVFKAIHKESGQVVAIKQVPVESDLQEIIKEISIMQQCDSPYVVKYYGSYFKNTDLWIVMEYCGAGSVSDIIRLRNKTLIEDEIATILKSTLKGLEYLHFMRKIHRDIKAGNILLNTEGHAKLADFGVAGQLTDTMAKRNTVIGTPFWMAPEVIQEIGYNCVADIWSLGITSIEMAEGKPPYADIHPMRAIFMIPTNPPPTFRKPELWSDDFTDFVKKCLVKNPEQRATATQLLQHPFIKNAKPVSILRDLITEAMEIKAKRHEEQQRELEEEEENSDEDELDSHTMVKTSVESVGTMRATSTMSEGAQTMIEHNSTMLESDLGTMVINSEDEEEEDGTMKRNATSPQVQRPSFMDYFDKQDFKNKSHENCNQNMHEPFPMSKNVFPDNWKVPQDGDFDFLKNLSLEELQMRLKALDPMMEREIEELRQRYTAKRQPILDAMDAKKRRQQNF

## COc1cc2c(cc1OC)-c1[nH]nc(Nc3cccc(F)c3)c1C2
[1]
  residual activity: 93.6%
[2]
  residual activity: 84.8%
[3]
  residual activity: 60.6%
[4]
  residual activity: 90%
[5]
  residual activity: 91.5%
[6]
  residual activity: 92.1%
[7]
  residual activity: 104%
[8]
  residual activity: 85.5%
[9]
  residual activity: 93%
[10]
  residual activity: 93%
[11]
  residual activity: 99.8%
[12]
  residual activity: 102%
[13]
  residual activity: 101%
[14]
  residual activity: 94.5%
[15]
  residual activity: 102%
[16]
  residual activity: 105%
[17]
  residual activity: 92.6%
[18]
  residual activity: 102%
[19]
  residual activity: 101%
[20]
  residual activity: 96.6%
[21]
  residual activity: 90.1%
[22]
  residual activity: 88.6%
[23]
  residual activity: 25%
[24]
  residual activity: 92.8%
[25]
  residual activity: 89%
[26]
  residual activity: 99.2%
[27]
  residual activity: 96.1%
[28]
  residual activity: 87.8%
[29]
  residual activity: 23.3%
[30]
  residual activity: 74.2%
[31]
  residual activity: 95%
[32]
  residual activity: 84.4%
[33]
  residual activity: 101%
[34]
  residual activity: 99.8%
[35]
  residual activity: 99.8%
[36]
  residual activity: 87.9%
[37]
  residual activity: 93.8%
[38]
  residual activity: 98%
[39]
  residual activity: 109%
[40]
  residual activity: 74.8%
[41]
  residual activity: 89%
[42]
  residual activity: 72.6%

## COc1cc2ncnc(Nc3ccc(O)c(Br)c3)c2cc1OC
[1]
  residual activity: 57.8%
[2]
  residual activity: 84.8%
[3]
  residual activity: 83.3%
[4]
  residual activity: 80.1%
[5]
  residual activity: 90%
[6]
  residual activity: 80.1%
[7]
  residual activity: 95.7%
[8]
  residual activity: 92.8%
[9]
  residual activity: 105%
[10]
  residual activity: 89.6%
[11]
  residual activity: 95.7%
[12]
  residual activity: 94.8%
[13]
  residual activity: 131%
[14]
  residual activity: 83.7%
[15]
  residual activity: 89%
[16]
  residual activity: 89.2%
[17]
  residual activity: 101%
[18]
  residual activity: 80.4%
[19]
  residual activity: 97%
[20]
  residual activity: 93.7%
[21]
  residual activity: 98.2%
[22]
  residual activity: 95.7%
[23]
  residual activity: 6.34%
[24]
  residual activity: 97.7%
[25]
  residual activity: 71.9%
[26]
  residual activity: 93.4%
[27]
  residual activity: 94.8%
[28]
  residual activity: 63%
[29]
  residual activity: 85.1%
[30]
  residual activity: 83.8%
[31]
  residual activity: 101%
[32]
  residual activity: 95.3%
[33]
  residual activity: 92.4%
[34]
  residual activity: 86.2%
[35]
  residual activity: 93.8%
[36]
  residual activity: 93.2%
[37]
  residual activity: 80.6%
[38]
  residual activity: 86.9%
[39]
  residual activity: 101%
[40]
  residual activity: 95.3%
[41]
  residual activity: 28.9%
[42]
  residual activity: 83.4%

## CCOc1cc2ncnc(Nc3cccc(Br)c3)c2cc1OCC
[1]
  residual activity: 93.3%
[2]
  residual activity: 90.6%
[3]
  residual activity: 80.2%
[4]
  residual activity: 96.1%
[5]
  residual activity: 98.5%
[6]
  residual activity: 94%
[7]
  residual activity: 96.5%
[8]
  residual activity: 104%
[9]
  residual activity: 98.7%
[10]
  residual activity: 99.5%
[11]
  residual activity: 120%
[12]
  residual activity: 105%
[13]
  residual activity: 110%
[14]
  residual activity: 83.7%
[15]
  residual activity: 101%
[16]
  residual activity: 93.8%
[17]
  residual activity: 94.7%
[18]
  residual activity: 84.7%
[19]
  residual activity: 93%
[20]
  residual activity: 95.9%
[21]
  residual activity: 96.1%
[22]
  residual activity: 94.4%
[23]
  residual activity: 29%
[24]
  residual activity: 98.9%
[25]
  residual activity: 84.2%
[26]
  residual activity: 90.9%
[27]
  residual activity: 90.3%
[28]
  residual activity: 95.6%
[29]
  residual activity: 101%
[30]
  residual activity: 74.9%
[31]
  residual activity: 98.7%
[32]
  residual activity: 98.5%
[33]
  residual activity: 98.7%
[34]
  residual activity: 95.5%
[35]
  residual activity: 95.4%
[36]
  residual activity: 94.5%
[37]
  residual activity: 80.3%
[38]
  residual activity: 95.8%
[39]
  residual activity: 102%
[40]
  residual activity: 95.5%
[41]
  residual activity: 47.7%
[42]
  residual activity: 91.5%
